From patent US12465607B2, “ALK inhibitors for treatment of ALK-negative cancer and plasma cell-mediated diseases” (UNIVERSITETET I OSLO, priority 2019, dated 2025)
Entries after “also recorded” stand apart in the source; their conditions may differ.

Tests used:
multiple myeloma cells = test: Cytotoxic activity against multiple myeloma cells (FIG. 4, L363, AMO-1 and bortezomib-resistant clones); format: cell-based, human; conditions: FIG. 4, 24 hr treatment
Procedure: (§1) The Results are the means of 3 independent experiments. Note the concentration-dependent reduction of viability of myeloma cells.
(§2) The cell lines used were the human multiple myeloma cell lines L363 (DSMZ catalogue number ACC 49), AMO-1 (DSMZ catalogue number ACC 538) and ARH-77 (ATCC CRL-1621).
(§3) Multiple myeloma cell lines were maintained in RPMI-1640 culture medium (Sigma-Aldrich, Buchs, Switzerland) supplemented with 10% heat-inactivated fetal bovine serum (FBS), 100 μg/ml streptomycin and 100 U/ml penicillin/streptomycin (Sigma-Aldrich, Buchs, Switzerland). The bortezomib-resistant cell lines were established and maintained from their parental cell line by continuous drug exposure>12 months to their parental cell lines (Soriano et al, Leukemia 30: 2198-2207, 2016).
(§4) The viability of the cells was determined 24 hr post treatment using Cell Counting Kit-8 (CCK-8; MedChemExpress, NJ, USA) according to the manufacturer's instructions.

CLL cells = test: Viability of activated CLL cells from patients, CellTiter-Glo 72 h (IC50, DSS); format: cell-based, human; conditions: CLL cells from 12 new patients
Procedure: CLL cells from patients were stimulated by adherent murine L cells expressing CD40L, BAFF and April for 24 h. The L cells were then removed by immuno-magnetic separation. Washed CLL cells were plated into 384-well plate format (10,000 cells/well) and tested against crizotinib at 5 concentrations in 10-fold dilutions (plates dispensed by an Echo acoustic dispenser, LabCyte Inc., San Jose, CA, USA). The plate was incubated in a humidified environment at 37° C. and 5% CO2. Cell viability was determined after 72 h using the CellTiter-Glo (Promega, Madison, WI, USA) ATP assay according to the manufacturer's instructions and using an Envision 2102 Multilabel reader (PerkinElmer, Shelton, CT, USA). Relative percentage cell viability was calculated by normalising luminescence units for each well to negative (DMSO 0.1%) and positive (100 μM BzCl) control wells. Curve fitting was conducted to obtain IC50 values.
Quantitative scoring of differential drug sensitivity for individual drugs was calculated as drug sensitivity scores (DSS values, Yadav et al., Scientific Reports 4: 5193, 2014). DSS values were calculated for integrated multiple dose-response relationships in high-throughput compound testing as shown.

[1] = test system: human L363-BTZ (bortezomib-resistant) myeloma cells; test: Intrafemoral L363-BTZ luciferase xenograft in NSG mice; format: in vivo; conditions: 7 days treatment from day 10; crizotinib 50 mg/kg orally daily; bortezomib 1 mg/kg i.v. twice
Procedure: In this figure, immunocompromised NSG mice were intrafemorally injected with human L363-BTZ (bortezomib-resistant) myeloma cells. The cells were equipped with luciferase for in vivo monitoring of disease progression. After 10 days, mice were treated with bortezomib i.v. twice over a 7 day period and with crizotinib orally every day over the 7 day period. The images on the left show examples of tumour load in the different groups at days 4 and 7 of treatment (days 14 and 17 post tumour inoculation), and the graph on the right depicts the average luciferase signal for each mouse in each cohort (n=4) normalised to day 0 of the treatment (day 10 post tumour inoculation). Statistical significance between the groups was assessed with two-way ANOVA and between the time-points using one-way ANOVA with Tukey post-test.
NSG (NOD-scid IL2Rgamma^null) mice were obtained from The Jackson Laboratory (No. 005557, CA, USA) and kept in isolated ventilated cages with food ad libitum. Age matched (6-8 weeks old) mice were injected with 0.5×10^5 L363-BTZ_Luc+_TdTomato+ multiple myeloma cells (equipped with luciferase vector for monitoring, obtained from Addgene: #72486) into the right femur. Tumour growth was monitored twice over the week following luciferin injection (150 mg/kg, obtained from BioVision, CA, USA). […]

AMO-1-BTZ = test: Myeloma cell line viability, CCK-8, 24 hr; format: cell-based; conditions: Homo sapiens, 24 hr treatment
Procedure: as §1, §2, §3, §4

AMO-1 = test: Myeloma cell line viability, CCK-8, 24 hr; format: cell-based; conditions: Homo sapiens, AMO1; AMO-1, 24 hr treatment
Procedure: as §1, §2, §3, §4

L363-BTZ = test: Myeloma cell line viability, CCK-8, 24 hr; format: cell-based, human; conditions: Homo sapiens; L363-BTZ, 24 hr treatment
Procedure: as §1, §2, §3, §4

L363 = test: Myeloma cell line viability, CCK-8, 24 hr; format: cell-based, human; conditions: Homo sapiens, L-363; L363, 24 hr treatment
Procedure: as §1, §2, §3, §4

[2] = test system: Hepatocellular carcinoma cells (HepG2); test: Apoptosis (cleaved caspase 3 immunoblot) in HepG2 cells with doxorubicin; format: cell-based; conditions: 5 μM doxorubicin alone, 24 h
Procedure: In B, Hepatocellular carcinoma cells (HepG2) were treated with DMSO (untreated) or with increasing concentrations (1, 2 and 5 μM) of doxorubicin for 24 h and apoptosis was assessed by immunoblotting for cleaved caspase 3. […] Cells were also treated with the same concentrations of doxorubicin in the presence of 1 μM crizotinib for 24 h.
(§5) Cells were washed twice with PBS and collected in lysis buffer (50 mM Tris-HCl, pH7.4; 1 mM EDTA, 100 mM NaCl, 0.1% SDS and 1% NP-40) supplemented with proteinase and phosphatase inhibitor (Pierce Protease and Phosphatase Inhibitor Mini Tablets, EDTA-free). Lysates were incubated on ice for 10 minutes followed by clearing centrifugation at 20,000×g at 4° C. for 10 min. Supernatants were transferred into fresh tubes and reducing loading buffer was added. Lysates were subjected to SDS-PAGE and transferred onto a nitrocellulose membrane using semi-dry transfer. The membrane was blocked (in ROTI buffer (Roth) or 5% milk in PBS with 0.1% tween) and probed with the appropriate primary antibodies. Subsequently membranes were incubated with horseradish peroxidase-conjugated secondary antibody. Immunoblots were developed using a chemiluminescence reagent (ECL clarity, BioRad) and imaged using ChemiDoc (BioRad).

HeLa cells = test: ER-to-Golgi trafficking in HeLa cells (ERES staining, mannosidase-II RUSH reporter); format: cell-based; conditions: RUSH reporter 20 min after biotin
Procedure: (§6) In A, HeLa cells expressing flag-tagged LTK were treated with 1 μM of crizotinib or ceritinib for 30 minutes. Afterwards, cells were lysed and immunoblotted against phosphorylated LTK, which is used as a surrogate for the active form of LTK. […] B, HeLa cells were treated with 1 μM ceritinib for 30 minutes followed by fixation and staining for Sec31A to label ERES. Cells were imaged by confocal microscopy and ERES were counted using ImageJ. C, HeLa cells stably expressing mCherry-tagged mannosidase-II RUSH reporter. Cells were treated with biotin to release the reporter from the ER. After 20 min, a time point where most of the reporter has reached the Golgi, cells were fixed and immunostained for GM130 to label the Golgi apparatus. […] D, IgA secreting AMO-1 cells were treated for 3 h with the indicated doses of crizotinib and the amount of IgA in cell supernatant was determined by ELISA.

plasma cells = test: Viability of in vitro-generated IRF4/BLIMP1 double positive end stage plasma cells; format: cell-based; conditions: Homo sapiens, B-cell, 120 h; B-cells stimulated 5 days, inhibitor day 5-7
Text: Negatively selected normal B-cells from blood bank donors were stimulated with sCD40L, IL-21, IL-4 for 5 days. This protocol allows generation of 10-20% end differentiated plasma cells that express IRF4 and BLIMP1. From day 5-7, cells were exposed to titred crizotinib in A, or ceritinib in B.
In A and B, IRF4 vs BLIMP1 in gated CD19^+ B cells is shown. IRF4 and BLIMP1 double positive cells represent end stage plasma cells. Such plasma cells are gated (blue elliptic region) and percent plasma cells are shown. The conditions without inhibitor (0) and with linear Alk-inhibitor (crizotinib, A; ceritinib, B) are shown for concentrations 0.01 μM, 0.1 μM, 1 μM, 10 μM and 100 μM.

LTK = target: T1, LTK (Homo sapiens, UniProt P29376); test: LTK inhibition: immunoblot of phosphorylated LTK in cells expressing LTK; format: cell-based; conditions: FIG. 5A: HeLa cells expressing flag-tagged LTK, 1 μM, 30 minutes
T1 construct: expressed in transfected cells; host or cells: HeLa cells
T1 sequence (P29376 17-864): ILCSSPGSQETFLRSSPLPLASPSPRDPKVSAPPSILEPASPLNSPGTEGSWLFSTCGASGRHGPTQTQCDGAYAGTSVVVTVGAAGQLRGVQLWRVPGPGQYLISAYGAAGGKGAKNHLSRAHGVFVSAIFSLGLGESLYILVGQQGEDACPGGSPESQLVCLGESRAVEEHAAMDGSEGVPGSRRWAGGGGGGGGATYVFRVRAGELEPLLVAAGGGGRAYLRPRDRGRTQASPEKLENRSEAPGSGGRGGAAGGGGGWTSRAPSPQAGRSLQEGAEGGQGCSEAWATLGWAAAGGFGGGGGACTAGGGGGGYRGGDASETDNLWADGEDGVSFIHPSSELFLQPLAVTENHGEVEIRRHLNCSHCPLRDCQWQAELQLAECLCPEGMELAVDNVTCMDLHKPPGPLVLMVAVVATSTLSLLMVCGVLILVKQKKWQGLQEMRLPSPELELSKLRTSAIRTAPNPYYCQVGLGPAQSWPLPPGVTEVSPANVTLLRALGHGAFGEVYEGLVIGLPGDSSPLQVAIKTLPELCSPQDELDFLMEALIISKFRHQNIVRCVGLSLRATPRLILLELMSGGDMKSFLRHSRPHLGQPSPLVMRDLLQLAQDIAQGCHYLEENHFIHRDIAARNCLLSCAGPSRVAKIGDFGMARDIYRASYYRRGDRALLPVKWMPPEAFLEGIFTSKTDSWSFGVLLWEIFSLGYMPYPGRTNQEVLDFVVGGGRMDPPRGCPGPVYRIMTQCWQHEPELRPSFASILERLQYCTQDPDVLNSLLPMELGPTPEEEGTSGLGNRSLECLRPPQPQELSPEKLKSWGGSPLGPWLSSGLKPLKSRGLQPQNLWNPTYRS
Procedure: as §5

AMO-1 cells = test: IgA secretion by AMO-1 cells, ELISA of supernatant; format: cell-based, human; conditions: 3 h
Procedure: as §6
Right: Secretion of Ig is reduced by ceritinib. The plasma cell line AMO-1 was washed and added to wells (10^6 cells/well) in the presence of titred ceritinib for 3 h. Supernatants were assayed for IgA secreted by the AMO-1 cells by use of the Human IgA ELISA Kit (Abcam, Cambridge, UK).
1×10^6/ml IgA-secreting AMO-1 cells were seeded in fresh medium with increasing doses of compounds of interest for 3 hr. […]

For CN1CCN(c2ccc(C(=O)Nc3n[nH]c4ccc(Cc5cc(F)cc(F)c5)cc34)c(NC3CCOCC3)c2)CC1 [entrectinib, N-[5-[(3,5-difluorophenyl)methyl]-1H-indazol-3-yl]-4-(4-methylpiperazin-1-yl)-2-(oxan-4-ylamino)benzamide], the “cytotoxic activity against multiple myeloma cells” value (multiple myeloma cells) was “cytotoxic activity” and the “patients with susceptible CLL cells, cut-off DSS=10” value (“patients with susceptible CLL cells” for short) (CLL cells) was 12/12.

With COc1cc(N2CCC(N3CCN(C)CC3)CC2)ccc1Nc1ncc(Cl)c(Nc2ccccc2P(C)(C)=O)n1 [brigatinib, 5-chloro-4-N-(2-dimethylphosphorylphenyl)-2-N-[2-methoxy-4-[4-(4-methylpiperazin-1-yl)piperidin-1-yl]phenyl]pyrimidine-2,4-diamine] the “patients with susceptible CLL cells” value (CLL cells) was 4/12.

CC(C)C[C@H](NC(=O)[C@H](Cc1ccccc1)NC(=O)c1cnccn1)B(O)O [bortezomib] was tested, and the “tumour burden (luciferase signal)” value [1] was “confirmed proteasome inhibitor resistance”.

CCc1cc2c(cc1N1CCC(N3CCOCC3)CC1)C(C)(C)c1[nH]c3cc(C#N)ccc3c1C2=O [alectinib, 9-ethyl-6,6-dimethyl-8-(4-morpholin-4-ylpiperidin-1-yl)-11-oxo-5H-benzo[b]carbazole-3-carbonitrile] was tested, and the IC50 (AMO-1-BTZ) was 17600 nM, the IC50 (AMO-1) was 13300 nM and the “cytotoxic activity against multiple myeloma cells” value (multiple myeloma cells) was “cytotoxic activity”. It also gave an IC50 (L363-BTZ) of 6220 nM and an IC50 (L363) of 6120 nM.

C[C@@H]1CN(C(=O)c2ccc(NC(=O)c3cc(O[C@H](C)c4c(Cl)ccc(F)c4Cl)c(N)nn3)cc2)C[C@H](C)N1 [ensartinib, 6-amino-5-[(1R)-1-(2,6-dichloro-3-fluorophenyl)ethoxy]-N-[4-[(3R,5S)-3,5-dimethylpiperazine-1-carbonyl]phenyl]pyridazine-3-carboxamide] was tested, and the “cytotoxic activity against multiple myeloma cells” value (multiple myeloma cells) was “cytotoxic activity” and the “patients with susceptible CLL cells” value (CLL cells) was 11/12.

In the case of C[C@H]1Oc2cc(cnc2N)-c2c(nn(C)c2C#N)CN(C)C(=O)c2ccc(F)cc21 [lorlatinib], the “cytotoxic activity against multiple myeloma cells” value (multiple myeloma cells) is reported as “did not efficiently kill myeloma cells” and the “patients with susceptible CLL cells” value (CLL cells) is reported as 0/12.

With COc1cccc2c1C(=O)c1c(O)c3c(c(O)c1C2=O)C[C@@](O)(C(=O)CO)C[C@@H]3O[C@H]1C[C@H](N)[C@H](O)[C@H](C)O1 [doxorubicin] the “cell death (cleaved caspase 3)” value [2] was “only weakly induces cell death”.

For Cc1cc(Nc2ncc(Cl)c(Nc3ccccc3S(=O)(=O)C(C)C)n2)c(OC(C)C)cc1C1CCNCC1 [ceritinib, 5-chloro-2-N-(5-methyl-4-piperidin-4-yl-2-propan-2-yloxyphenyl)-4-N-(2-propan-2-ylsulfonylphenyl)pyrimidine-2,4-diamine], the IC50 (AMO-1-BTZ) was 2770 nM, the IC50 (AMO-1) was 2090 nM and the “cytotoxic activity against multiple myeloma cells” value (multiple myeloma cells) was “cytotoxic activity”. The ER-to-Golgi trafficking (HeLa cells) was “inhibits ER-to-Golgi trafficking”, the “patients with susceptible CLL cells” value (CLL cells) was 11/12 and the IC50 (plasma cells) was under 1 nM. The IC50 (L363-BTZ) was 790 nM, the IC50 (L363) was 1030 nM and the “inhibition of LTK” value (LTK) was “inhibit LTK”. For the same compound, the “immunoglobulin (IgA) secretion” value (AMO-1 cells) was “reduced; also recorded: inhibits immunoglobulin secretion”.
